{"source": "patent US20210071138A1", "about": "“GAMETOGENESIS” (United Kingdom Research and Innovation, priority 2017, published 2021)", "key": {"[1]": {"system": "germline reprogramming responsive (GRR) genes", "test": "RNA-Seq differential expression of GRR genes in mESCs", "format": "cell-based, mouse", "protocol": "J1 (wild type), Dnmt-TKO^23 and Tet1-KO Dnmt-TKO mESCs were cultured in FCS/LIF medium without feeders on 0.1% gelatin. FCS/LIF medium consists of GMEM (Gibco) supplemented with 10% FCS, 0.1 mM MEM nonessential amino acids, 2 mM 1-glutamine, 1 mM sodium pyruvate, 0.1 mM 2-mercaptoethanol and mouse LIF (ESGRO, Millipore). For inhibitor experiments, mESCs were plated at a density of 1.5×10^4/cm^2 and left overnight. The next morning medium was exchanged for FCS/LIF medium containing either 50 μM PRC1 inhibitor PRT4165 (Ismail et al., 2013) or DMSO control and cells pelleted at the indicated time for analysis. […]\nFor study of Tet1-KO and Tet1-WT PGCs, Illumina and Smart-seq adapters from the sequencing reads were first trimmed using Trimmomatic. […] RNA-Seq reads were aligned to the mouse genome (mm9, NCBI build 37) with Bowtie (version 0.12.8) and Tophat (version 2.0.2) with options -N 2 --b2-very-sensitive --b2-L 25. […] Read counts per annotated gene were computed using HTSeq (version 0.5.3p9) and expression level of each gene was quantified by computing the number of fragments detected per kilobase per million of reads (FPKM) using custom R script. […] For determining gene expression levels in wild type and Dnmt1-conditional knockout and matched wild type E10.5 PGCs, raw RNA-Seq reads were downloaded from GSE74938^24 and processed as above. […]"}, "PRC1": {"biological_target": "T1, PRC1 (Mus musculus, UniProt Q9CQJ4)", "T1 construct": "endogenous in cells; host or cells: J1 (wild type) and Dnmt-TKO mouse embryonic stem cells", "T1 sequence (Q9CQJ4 1-336)": "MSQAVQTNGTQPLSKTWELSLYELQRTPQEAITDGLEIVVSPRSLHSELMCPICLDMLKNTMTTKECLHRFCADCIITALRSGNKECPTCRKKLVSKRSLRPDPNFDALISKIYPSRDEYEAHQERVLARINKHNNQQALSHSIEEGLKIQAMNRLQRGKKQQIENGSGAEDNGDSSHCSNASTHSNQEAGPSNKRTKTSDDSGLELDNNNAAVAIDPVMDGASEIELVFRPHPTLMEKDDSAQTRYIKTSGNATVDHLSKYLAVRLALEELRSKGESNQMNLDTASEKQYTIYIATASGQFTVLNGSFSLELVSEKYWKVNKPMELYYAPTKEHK", "test": "Western blot of H2Aub in mESCs cultured with PRC1 inhibitor", "format": "cell-based", "conditions": "50 μM PRT4165, after 6h of culture, vs DMSO control (FIG. 15b)", "protocol": "J1 (wild type), Dnmt-TKO^23 and Tet1-KO Dnmt-TKO mESCs were cultured in FCS/LIF medium without feeders on 0.1% gelatin. FCS/LIF medium consists of GMEM (Gibco) supplemented with 10% FCS, 0.1 mM MEM nonessential amino acids, 2 mM 1-glutamine, 1 mM sodium pyruvate, 0.1 mM 2-mercaptoethanol and mouse LIF (ESGRO, Millipore). For inhibitor experiments, mESCs were plated at a density of 1.5×10^4/cm^2 and left overnight. The next morning medium was exchanged for FCS/LIF medium containing either 50 μM PRC1 inhibitor PRT4165 (Ismail et al., 2013) or DMSO control and cells pelleted at the indicated time for analysis.\nmESCs were lysed by sonication in RIPA buffer (150 mM sodium chloride, 1.0% Triton X-100, 0.5% sodium deoxychlorate, 0.1% sodium dodecylsulfate, 50 mM Tris pH 8.0) and protease-inhibitor cocktail (Roche, 11 697 498 001). Cell debris were removed by centrifugation at 14000 g 5 min 4° C. Protein was quantified using the BCA protein assay (Thermo, 23227). 2 μg (for H2A and H2Aub) or 20 μg (for Tet1) of each protein extract was loaded onto an 15% or 8% SDS polyacrylamide gel and transferred to a PVDF membrane after electrophoresis. Membranes were blocked with 5% BSA for 1 hour and then incubated overnight at 4° C. with primary antibodies at the following dilutions: anti-H2A antibody (Abcam, 18255) 1:2000; anti-ubiquityl H2A antibody (Cell Signalling 8240) 1:2000; anti-Tet1 antibody [N1] […]"}}, "data": [{"compound": "O=C1C(=Cc2cccnc2)C(=O)c2ccccc21", "note": "[PRT4165]", "values": [{"measurement": "number of GRR genes activated (of 45) upon dual inhibition of 5mC/PRC1 repression", "setting": "[1]; Dnmt-TKO mESCs + 6h PRT4165 (50 μM) vs wild type + 6h DMSO (FIG. 4d, 15c)", "value": 33, "unit": "GRR genes"}, {"measurement": "number of GRR genes activated (of 45) upon sole inhibition of PRC1 repression", "setting": "[1]; wild type mESCs + 6h PRT4165 (50 μM) vs wild type + 6h DMSO (FIG. 4d, 15c)", "value": 10, "unit": "genes"}, {"measurement": "inhibition of PRC1-mediated H2A ubiquitination", "setting": "PRC1", "value": "significant inhibition"}]}]}
